{
  "source": "patent US20220235030A1",
  "about": "“SELECTIVE HISTAMINE H3 ANTAGONIST ACID ADDITION SALTS AND PROCESS FOR THE PREPARATION THEREOF” (RICHTER GEDEON NYRT., priority 2019, published 2022)",
  "assay_type_in_all_cases": "physicochemical",
  "key": {"[1]": {"assay": "Dynamic vapor sorption (DVS) analysis at 25° C., hygroscopicity and deliquescence", "set-up": "Δm/ΔRH: unit not given beside the values", "conditions": "for Δm/ΔRH: 25° C.", "protocol": "Determination of the critical relative humidity is feasible by gravimetric method, e.g. with DVS, where relative humidity is changed in suitably selected steps and a sufficiently long time is used to the onset of quasi-equilibrium.\nThe deliquescence tendency of each salt is characterized by the critical relative humidity (CRH) value (Table 1), which was determined based on the sorption curves measured according to the measurement parameter settings below, with DVS analysis at 25° C. isotherm conditions, according to the following. […]\nIf the given sorption step is Δm/ΔRH≥0.5, then RH1 is considered to be the critical relative humidity (CRH) value indicating the end point of the physical stability of the substance. The value thus determined is a good match with the onset of a significant monotonic weight gain observed visually on the sorption curve. Above the critical relative humidity value, it is the process of deliquescence of the substance that determines the weight gain observed on the sorption curve."}, "[2]": {"assay": "10-day solid stress stability study, HPLC purity test", "conditions": "dihydrochloride salt", "description": "Increased stability to ambient humidity is beneficial for longer-term physical and chemical stability of the active ingredient. The relationship between the reduced hygroscopic nature and the increased chemical stability associated with it is shown in the most preferred citrate salts in comparison to the dihydrochloride salt."}, "[3]": {"assay": "Solubility in simulated gastric fluid", "conditions": "simulated gastric fluid (SGF without pepsin, pH=1.3); dihydrochloride salt", "description": "The generally observed hygroscopic nature of the 1-[4-(4-{3-[(2R)-2-methyl-pyrrolidin-1-yl]-propoxy}-phenoxy)-piperidin-1-yl]-ethanone salts is inter alia related to the good solubility thereof."}, "[4]": {"assay": "Thermogravimetric (TG) analysis of thermal stability", "description": "The compound of 1-[4-(4-{3-[(2R)-2-methyl-pyrrolidin-1-yl]-propoxy}-phenoxy)-piperidin-1-yl]-ethanone contains a single strongly basic center (pyrrolidine nitrogen), which is capable of forming stoichiometric salt with equimolar hydrochloride, thus the formation of dihydrochloride stoichiometry is not expected in view of the acid/base character of the compound. Based on TG and DSC analysis, the second molar amount of hydrochloride is less strongly bound to the crystal lattice, behaving as a volatile component. […] (FIG. 8). Parallelly to this process, according to the DSC and microscopic analysis, the sample starting from approx. 100° C. melts during decomposition (FIG. 9)."}},
  "note": "Entries after “also recorded” stand apart in the source; their conditions may differ. Where a name gives a salt, the structure may show the parent alone.",
  "data": [
    {"smiles": "CC(=O)N1CCC(Oc2ccc(OCCCN3CCC[C@H]3C)cc2)CC1", "note": "[diHCl, 1-[4-(4-{3-[(2R)-2-methyl-pyrrolidin-1-yl]-propoxy}-phenoxy)-piperidin-1-yl]-ethanone dihydrochloride salt]", "values": [
      {"measurement": "Critical Relative Humidity (CRH)", "setting": "[1]; DVS at 25° C., RH1 of first sorption step with Δm/ΔRH≥0.5, dihydrochloride salt", "result": 60, "unit": "%"},
      {"measurement": "Δm/ΔRH", "setting": "[1]; RH1 0%, sorption, dihydrochloride salt", "result": 0.0},
      {"measurement": "Δm/ΔRH", "setting": "[1]; RH1 10%, sorption, dihydrochloride salt", "result": 0.0},
      {"measurement": "Δm/ΔRH", "setting": "[1]; RH1 20%, sorption, dihydrochloride salt", "result": 0.0},
      {"measurement": "Δm/ΔRH", "setting": "[1]; RH1 30%, sorption, dihydrochloride salt", "result": 0.0},
      {"measurement": "Δm/ΔRH", "setting": "[1]; RH1 40%, sorption, dihydrochloride salt", "result": 0.0},
      {"measurement": "Δm/ΔRH", "setting": "[1]; RH1 50%, sorption, dihydrochloride salt", "result": 0.0},
      {"measurement": "Δm/ΔRH", "setting": "[1]; RH1 60%, sorption, dihydrochloride salt", "result": 1.7},
      {"measurement": "Δm/ΔRH", "setting": "[1]; RH1 70%, sorption, dihydrochloride salt", "result": 2.4},
      {"measurement": "Δm/ΔRH", "setting": "[1]; RH1 80%, sorption, dihydrochloride salt", "result": 2.1},
      {"measurement": "hygroscopicity (in words)", "setting": "[1]; dihydrochloride salt", "result": "highly hygroscopic"},
      {"measurement": "relative weight gain", "setting": "[1]; sorption curve, at 70% RH", "result": 17, "unit": "%"},
      {"measurement": "relative weight change", "setting": "[1]; sorption curve, at 90% RH", "result": 63, "unit": "%"},
      {"measurement": "water bound relative to the dried mass", "setting": "[1]; sorption curve, up to 60% RH", "result": "about 0.7%"},
      {"measurement": "relative humidity above which high, continuous weight gain (deliquescence) is observed", "setting": "[1]; sorption, DVS at 25° C., dihydrochloride salt", "result": "above 60%"},
      {"measurement": "chemical stability (in words)", "setting": "[2]; 10-day solid stress: heat, heat and humidity", "result": "slightly degraded by heat; also recorded: degrades significantly under the combined effect of heat and humidity"},
      {"measurement": "All contaminant (area %)", "setting": "[2]; 10 days, 40° C., 75% RH, open glass", "result": 59.56, "unit": "% area %"},
      {"measurement": "All contaminant (area %)", "setting": "[2]; 10 days, 50° C., 75% RH, open glass", "result": 51.32, "unit": "% area %"},
      {"measurement": "All contaminant (area %)", "setting": "[2]; 10 days, 50° C., sealed glass", "result": 0.98, "unit": "% area %"},
      {"measurement": "All contaminant (area %)", "setting": "[2]; 10 days, 75° C., sealed glass", "result": 1.50, "unit": "% area %"},
      {"measurement": "All contaminant (area %)", "setting": "[2]; starting sample", "result": 0.85, "unit": "% area %"},
      {"measurement": "solubility", "setting": "[3]", "result": "greater than 59 mM"},
      {"measurement": "thermal stability (in words)", "setting": "[4]", "result": "thermally poorly stable"}
    ]}
  ]
}
